One block for each compound: values may come before it.
Tests used:
5-HT2C receptor [1] = biological target: T1, 5-HT2C receptor (Homo sapiens, UniProt P28335); experiment: Functional activity, FLIPR calcium assay in CHO cells expressing human 5-HT2C; assay type: cell-based; design: expressed in transfected cells; host or cells: CHO cells; conditions: for EC50: CHO cells, FLIPR, Fluo-3-AM, read-out: h5-HT2C EC50; for h5-HT2C Rel. Eff.: maximum fluorescent signal relative to 10 μM 5-HT (defined as 100%)
T1 sequence (P28335 33-458): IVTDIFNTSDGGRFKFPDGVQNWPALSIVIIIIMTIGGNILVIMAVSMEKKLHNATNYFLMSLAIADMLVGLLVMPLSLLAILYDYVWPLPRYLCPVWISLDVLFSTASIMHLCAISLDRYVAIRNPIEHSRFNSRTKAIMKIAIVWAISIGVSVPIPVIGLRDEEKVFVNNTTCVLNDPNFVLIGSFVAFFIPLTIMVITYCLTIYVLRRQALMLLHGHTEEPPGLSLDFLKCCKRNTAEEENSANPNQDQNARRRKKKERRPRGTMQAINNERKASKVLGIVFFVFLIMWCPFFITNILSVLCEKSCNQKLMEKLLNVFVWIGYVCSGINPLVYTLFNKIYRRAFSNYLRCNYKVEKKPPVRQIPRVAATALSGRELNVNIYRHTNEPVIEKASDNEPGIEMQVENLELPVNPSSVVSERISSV
Experimental: (§1) The functional activity of compounds of formula (I) was assayed using a Fluorimetric Imaging Plate Reader (FLIPR). CHO cells expressing the human 5-HT2C or human 5-HT2A receptors were counted and plated into standard 96 well microtitre plates on the day before testing to give a confluent monolayer. The cells were then loaded with the calcium sensitive dye, Fluo-3-AM. Unincorporated dye was removed using an automated cell washer to leave a total volume of 100 μL/well of assay buffer (Hanks balanced salt solution containing 20 mM Hepes and 2.5 mM probenecid). The drug (dissolved in 50 μL of the assay buffer) was added at a rate of 70 μL/sec to each well of the FLIPR 96 well plate during fluorescence measurements. The measurements were taken at 1 sec intervals and the maximum fluorescent signal was measured (approx 10-15 secs after drug addition) and compared with the response produced by 10 μM 5-HT (defined as 100%) to which it was expressed as a percentage response (relative efficacy). Dose response curves were constructed using Graphpad Prism (Graph Software Inc.).

5-HT2C receptor [2] = biological target: T1, 5-HT2C receptor; experiment: Binding to 5-HT2C receptor, [3H]-5-HT radioligand, Method (a); design: expressed in transfected cells; host or cells: CHO cell line; conditions: 5-HT2C receptors in a CHO cell line, read-out: Method (a) Ki (2C)
Experimental: (§2) The binding of compounds of formula (I) to serotonin receptors was determined in vitro by standard methods. The preparations were investigated in accordance with the assays given hereinafter.
Method (a): For the binding to the 5-HT2C receptor the 5-HT2C receptors were radiolabeled with [^3H]-5-HT. The affinity of the compounds for 5-HT2C receptors in a CHO cell line was determined according to the procedure of D. Hoyer, G. Engel and H. O. Kalkman, European J. Pharmacol., 1985, 118, 13-23.

5-HT2A receptor [3] = biological target: T2, 5-HT2A receptor (Homo sapiens, UniProt P28223); experiment: Binding to 5-HT2A receptor, [125I]-DOI radioligand, Method (c); design: expressed in transfected cells; host or cells: CHO cell line; conditions: 5-HT2A receptors in a CHO cell line, read-out: Method (c) Ki (2A)
T2 sequence (P28223 whole entry): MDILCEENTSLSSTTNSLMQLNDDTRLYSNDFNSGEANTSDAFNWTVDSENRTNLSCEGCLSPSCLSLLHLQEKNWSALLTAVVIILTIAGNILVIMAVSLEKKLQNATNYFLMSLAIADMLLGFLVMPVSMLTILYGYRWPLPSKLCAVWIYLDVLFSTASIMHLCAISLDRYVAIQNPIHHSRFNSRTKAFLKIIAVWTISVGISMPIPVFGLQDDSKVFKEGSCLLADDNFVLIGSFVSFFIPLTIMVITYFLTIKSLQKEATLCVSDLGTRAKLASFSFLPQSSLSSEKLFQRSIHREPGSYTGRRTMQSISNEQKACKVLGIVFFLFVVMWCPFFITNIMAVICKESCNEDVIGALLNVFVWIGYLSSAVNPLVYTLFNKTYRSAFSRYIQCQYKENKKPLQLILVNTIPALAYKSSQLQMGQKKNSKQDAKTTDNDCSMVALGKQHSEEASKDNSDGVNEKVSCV
Experimental: as §2
Method (c): For the binding to the 5-HT2A receptor the 5-HT2A receptors were radiolabeled with [^125I]-DOI. The affinity of the compounds for 5-HT2A receptors in a CHO cell line was determined according to the procedure of D. J. McKenna and S. J. Peroutka, J. Neurosci., 1989, 9, 3482-90.

5-HT2A receptor [4] = biological target: T2, 5-HT2A receptor; experiment: Functional activity, FLIPR calcium assay in CHO cells expressing human 5-HT2A; assay type: cell-based; design: expressed in transfected cells; host or cells: CHO cells; conditions: for EC50: CHO cells, FLIPR, Fluo-3-AM, read-out: h5-HT2A EC50; for h5-HT2A Rel. Eff.: maximum fluorescent signal relative to 10 μM 5-HT (defined as 100%)
Experimental: as §1

human 5-HT2B receptors = biological target: T3, human 5-HT2B receptors (Homo sapiens, UniProt P41595); experiment: Binding to 5-HT2B receptor, [3H]-5-HT radioligand, Method (b); conditions: human 5-HT2B receptors in a CHO cell line, read-out: Method (b) Ki (2B)
T3 construct: expressed in transfected cells; host or cells: CHO cell line
T3 sequence (P41595 whole entry): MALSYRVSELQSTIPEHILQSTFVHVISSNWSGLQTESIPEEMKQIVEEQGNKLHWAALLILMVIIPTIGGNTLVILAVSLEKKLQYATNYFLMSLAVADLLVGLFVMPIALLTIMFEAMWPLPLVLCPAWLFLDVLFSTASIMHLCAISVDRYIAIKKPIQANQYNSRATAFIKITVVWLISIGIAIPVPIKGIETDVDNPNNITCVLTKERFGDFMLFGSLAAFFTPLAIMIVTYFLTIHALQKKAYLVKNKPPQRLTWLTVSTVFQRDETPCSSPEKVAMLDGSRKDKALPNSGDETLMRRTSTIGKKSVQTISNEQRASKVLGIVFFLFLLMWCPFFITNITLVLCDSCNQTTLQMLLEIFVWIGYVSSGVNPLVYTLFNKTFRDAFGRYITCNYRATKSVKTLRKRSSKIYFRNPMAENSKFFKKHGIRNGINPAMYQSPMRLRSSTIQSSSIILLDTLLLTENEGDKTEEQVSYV
Experimental: as §2
Method (b): For the binding to the 5-HT2B receptor the 5-HT2B receptors were radiolabeled with [^3H]-5-HT. The affinity of the compounds for human 5-HT2B receptors in a CHO cell line was determined according to the procedure of K. Schmuck, C. Ullmer, P. Engels and H. Lubbert, FEBS Lett., 1994, 342, 85-90.

melting point: 118 to 119 °C
SMILES: Cc1c2c(nc3c1C[C@@H]1CNC[C@@H](C)N31)COC2

melting point: 90 to 91 °C
SMILES: C[C@@H]1OCc2cc3c(nc21)N1[C@@H](CNC[C@H]1C)C3

SMILES: C[C@@H]1CNC[C@H]2Cc3cc4c(nc3N21)[C@H](C1CC1)OC4 [Example 17, (3S,5R,8aR)-3-Cyclopropyl-5-methyl-1,3,5,6,7,8,8a,9-octahydro-2-oxa-4,4b,7-triaza-cyclopehta[b]fluorene]
EC50 (5-HT2C receptor [1]): 12.4 nM
h5-HT2C Rel. Eff. (5-HT2C receptor [1]): 95%
Ki (5-HT2C receptor [2]): 23.4 nM
Ki (5-HT2A receptor [3]): 635 nM
EC50 (5-HT2A receptor [4]): 534 nM
h5-HT2A Rel. Eff. (5-HT2A receptor [4]): 35%
Ki (human 5-HT2B receptors): 760 nM

SMILES: C[C@@H]1CNC[C@H]2Cc3cc4c(nc3N21)C(C)(C)OC4 [Example 19, (5R,8aR)-3,3,5-Trimethyl-1,3,5,6,7,8,8a,9-octahydro-2-oxa-4,4b,7-triaza-cyclopenta[b]fluorene]
EC50 (5-HT2C receptor [1]): 8.4 nM
h5-HT2C Rel. Eff. (5-HT2C receptor [1]): 87%
Ki (5-HT2C receptor [2]): 5.5 nM
Ki (5-HT2A receptor [3]): 80.2 nM
EC50 (5-HT2A receptor [4]): > 1000 nM
h5-HT2A Rel. Eff. (5-HT2A receptor [4]): 3%
Ki (human 5-HT2B receptors): 26.3 nM

SMILES: C[C@@H]1CNC[C@H]2Cc3cc4c(nc3N21)CSC4 [Example 33, (5R,8aR)-5-Methyl-1,3,5,6,7,8,8a,9-octahydro-2-thia-4,4b,7-triaza-cyclopenta[b]fluorene]
Ki (5-HT2C receptor [2]): 5.3 nM
Ki (5-HT2A receptor [3]): 98.9 nM
Ki (human 5-HT2B receptors): 21.1 nM

Source: patent US7547699B2, “Tetracyclic 6 azapyrazinoindolines as 5HT2C receptor agonists for obesity” (Hoffmann-La Roche Inc., priority 2005, dated 2009)
